For 49 molecules, IC50 results are on record in patent publication US9708247B2, “Modulators of the eIF2alpha pathway” (The Regents of the University of California, priority 2013, dated 2017).

Where two headings read alike, the source gives them in different places.

In the assay the test system is ATF4 luciferase reporter. Put plainly: ATF4 luciferase reporter assay (Cell-luc) in HEK293T cells. The assay is classed as cell-based, human. The settings on record: read-out: IC50 (nM) Cell-luc. The text has this: FIGS. 1A-1C. […]
To identify inhibitors of PERK signaling, we engineered a reporter that allows monitoring of PERK activation in living cells. To this end, we constructed a retroviral vector containing the open-reading frame of firefly luciferase fused to the 5′UTR of ATF4 mRNA (FIG. 1A), which contains two short open-reading frames (uORFs) that control ATF4 translation in a stress-dependent manner. After infection, we established a HEK293T cell line harboring the stably integrated reporter. […] This format was used to screen 106,281 compounds covering a wide chemical space. We identified 460 hits (0.43%) (FIG. 1C), which were further validated in an 8-point dose-response assay using the same reporter. We further triaged the compounds by discarding inhibitors that also affected the IRE1 branch of the UPR using an XBP1-luciferase splicing reporter. […] We next used an orthogonal secondary screen that employed a different reporter (bi-cistronic ATF4-dGFPIRES-mCherry) stably integrated into a different cell line (U20S cells). The read-out of this latter screen was microscopy-based, which allowed us to simultaneously assess acute toxicity by cell counting, further reducing the number of viable hits to 77. As a tertiary screen, we tested compounds for their ability to inhibit ER stress-elicited induction of endogenous ATF4 by Western blot analysis. Twenty-eight compounds passed this test and were analyzed further.
ATF4 reporters were constructed by fusing the human full-length ATF4 5′-UTR (NCBI Accession BC022088.2) in front of the firefly luciferase (FLuc) or a destabilized eGFP (dEGFP) coding sequences lacking the initiator methionine.
The ATF4-FLuc reporter was generated by cloning a PCR-product containing the ATF4 full-length 5′-UTR (from +1 position a the transcription start site down to one nucleotide after the terminator codon of the second uORF) flanked by KpnI/XhoI and BglII sites at the 5′ and 3′ ends, respectively, into the KpnI-BglII sites of pCAX-F-XBP1-Luc. The resulting construct, pCAX-ATF4-FLuc, was then digested with BamHI, blunted with T4 DNA polymerase, and then digested with XhoI. The resulting fragment was then subcloned into the retroviral expression vector pLPCX (Clontech) after digesting it with HindIII, blunting with T4 DNA polymerase and then digesting with XhoI to generate pLPCX-ATF4-FLuc (DAA-312). DAA-312 was used to produce recombinant retroviruses using standard methods and the resulting viral supernatant was used to transduce HEK293T cells, which were then subsequently selected with puromycin to generate a stable cell line employed in the primary screen.
HEK293T cells carrying the ATF4 luciferase reporter were plated on poly-lysine coated 384 well plates (Greiner) at 30,000 cells per well. […] Luminescence was measured using One Glo (Promega) as specified by the manufacturer. […] Thus, these were considered unique to the PERK branch and were cherry-picked for further analysis.
(A reporter such as luciferase makes a cellular process visible.)

Setting [1] is: Homo sapiens, HEK-293T, ATF4 luciferase reporter, HEK293T cells.
Setting [2] is: ATF4 luciferase reporter, HEK293T cells.

By IC50 is commonly meant the midpoint of a concentration-inhibition curve.

Consider `CC(=O)c1cccc(OCC(=O)N[C@H]2CC[C@H](NC(=O)COc3ccc(Cl)cc3)CC2)c1` [compound 843984], for which, under setting [1], the IC50 was determined as 1000 nM.

On to `O=C(COc1ccc(Cl)cc1)N[C@H]1CC[C@H](NC(=O)COc2ccc(Cl)cc2[N+](=O)[O-])CC1` [compound 843987], for which the IC50 under setting [2] worked out at 75 nM.

Turning to `O=C(COc1ccc(Cl)cc1)NCc1cccc(NC(=O)COc2ccc(Cl)cc2)c1` [compound 873882], under setting [1], the IC50 is greater than 10000 nM.

On to `C[C@@H]1NC(=O)N[C@@H]1CCCCCC(=O)NCCOCCOCCOCCn1cc([C@]2(NC(=O)COc3ccc(Cl)cc3)CC[C@H](NC(=O)COc3ccc(Cl)cc3)CC2)nn1` [compound 873883], for which the IC50 under setting [1] was 2600 nM.

Take `CC(=O)c1cc(Cl)ccc1OCC(=O)N[C@H]1CC[C@H](NC(=O)COc2ccc(Cl)cc2)CC1` [compound 873972]: under setting [1], the IC50 is greater than 10000 nM.

As for `O=C(COc1ccc(Cl)cc1)N[C@H]1CC[C@H](NC(=O)COc2ccc(Cl)cc2C(=O)c2ccccc2)CC1` [compound 873973], under setting [1], the IC50 was greater than 10000 nM.

Consider `O=C(COc1ccc(Cl)cc1)NCc1ccc(CNC(=O)COc2ccc(Cl)cc2)cc1` [compound 874796], for which, under setting [1], the 50% inhibitory concentration (IC50) was greater than 10000 nM.

In the case of `O=C(COc1ccc(Cl)cc1)N[C@H]1CC[C@H](NC(=O)OCc2ccc(Cl)cc2)CC1` [compound 874797], the IC50 under setting [1] came out at 122 nM.

Take `CC(C)c1ccc(OCC(=O)N[C@H]2CC[C@H](NC(=O)COc3ccc(Cl)cc3)CC2)cc1` [compound 874798]: the IC50 under setting [1] came out at 200 nM.

In the case of `CC(Oc1ccc(Cl)cc1)C(=O)N[C@H]1CC[C@H](NC(=O)COc2ccc(Cl)cc2)CC1` (stereo partly shown) [compound 874799], the IC50 under setting [1] amounted to 210 nM.

Turning to `O=C(COc1ccc(Cl)cc1)N[C@H]1CC[C@H](NC(=O)COc2ccc(Cl)c(Cl)c2)CC1` [compound 874800], under setting [1], the IC50 came out at 2 nM.

Consider `Cc1cc(OCC(=O)N[C@H]2CC[C@H](NC(=O)COc3ccc(Cl)cc3)CC2)ccc1Cl` [compound 874801], for which, under setting [1], the IC50 came to 2.4 nM.

`O=C(COc1ccc(Cl)cc1)N[C@H]1CC[C@H](NC(=O)COc2ccc(Cl)c(F)c2)CC1` [compound 874802]: the IC50 under setting [1] was found to be 2 nM.

Take `O=C(COc1ccc(Cl)cc1)N[C@H]1CC[C@H](NC(=O)COc2ccc(Cl)c(C(F)(F)F)c2)CC1` [compound 874803]: under setting [1], the half-inhibitory concentration (IC50) stood at 4 nM.

`O=C(COc1ccc(Cl)cc1)N[C@H]1CC[C@H](NC(=O)COc2ccc(Cl)c([N+](=O)[O-])c2)CC1` [compound 874804]: the IC50 under setting [2] came to 3 nM.

For `Clc1ccccc1CNC[C@H]1CC[C@H](CNCc2ccccc2Cl)CC1` [compound 874805], under setting [1], the IC50 was greater than 10000 nM.

For the molecule `O=C(Cc1ccc(Cl)cc1)NCc1ccc(CNC(=O)Cc2ccc(Cl)cc2)cc1` [compound 885253], under setting [1], the IC50 is greater than 10000 nM.

As for `O=C(NCc1ccc(CNC(=O)Oc2ccc(Cl)cc2)cc1)Oc1ccc(Cl)cc1` [compound 885254], the IC50 under setting [1] was greater than 10000 nM.

Take `O=C(COc1ccc(Cl)cc1)N[C@H]1CC[C@H](CNC(=O)Oc2ccc(Cl)cc2)CC1` [compound 885255]: the IC50 under setting [1] is 30 nM.

For `O=C(Cc1ccc(Cl)cc1)NC[C@H]1CC[C@H](NC(=O)COc2ccc(Cl)cc2)CC1` [compound 885256], under setting [1], the IC50 turned out to be 152 nM.

For `O=C(N[C@H]1CC[C@H](NC(=O)OCc2ccc(Cl)cc2)CC1)OCc1ccc(Cl)cc1` [compound 885257], the 50% inhibitory concentration (IC50) under setting [1] was greater than 10000 nM.

`O=C(COc1ccc(Cl)cc1)N[C@H]1CC[C@H](NC(=O)COc2cccc(F)c2)CC1` [compound 912562]: the IC50 under setting [1] is 125 nM.

In the case of `O=C(COc1ccc(Cl)cc1)N[C@H]1CC[C@H](NC(=O)COc2cccc(F)c2F)CC1` [compound 912563], under setting [1], the IC50 was found to be 334 nM.

`O=C(COc1ccc(Cl)cc1)N[C@H]1CC[C@H](NC(=O)COc2cc(F)cc(F)c2)CC1` [compound 912564]: the IC50 under setting [1] amounted to 220 nM.

For `O=C(COc1ccc(Cl)cc1)N[C@H]1CC[C@H](NC(=O)COc2cc(Cl)cc(Cl)c2)CC1` [compound 912565], the IC50 under setting [1] is greater than 10000 nM.

Turning to `CC(=O)c1cc(OCC(=O)N[C@H]2CC[C@H](NC(=O)COc3ccc(Cl)cc3)CC2)ccc1Cl` [compound 912566], the IC50 under setting [1] stood at 149 nM.

For the molecule `O=C(NC[C@H]1CC[C@H](CNC(=O)Oc2ccc(Cl)cc2)CC1)Oc1ccc(Cl)cc1` [compound 913815], the IC50 under setting [1] is greater than 10000 nM.

Regarding `O=C(COc1ccc(Cl)cc1)N[C@H]1CC[C@H](NC(=O)COc2ccc(Cl)c(I)c2)CC1` [compound 914582], the IC50 under setting [1] came out at 5.2 nM.

On to `C[Si](C)(C)C#Cc1cc(OCC(=O)N[C@H]2CC[C@H](NC(=O)COc3ccc(Cl)cc3)CC2)ccc1Cl` [compound 914583], for which the IC50 under setting [1] was determined as 12 nM.

As for `C#Cc1cc(OCC(=O)N[C@H]2CC[C@H](NC(=O)COc3ccc(Cl)cc3)CC2)ccc1Cl` [compound 914584], under setting [1], the half-maximal inhibitory concentration (IC50) is 12 nM.

With `O=C(COc1ccc(Cl)cc1)N[C@H]1CC[C@H](NC(=O)COc2ccc(I)cc2)CC1` [compound 914989], the IC50 under setting [1] was found to be 5.6 nM.

Take `C[Si](C)(C)C#Cc1ccc(OCC(=O)N[C@H]2CC[C@H](NC(=O)COc3ccc(Cl)cc3)CC2)cc1` [compound 916348]: the IC50 under setting [1] was found to be 160 nM.

For `C#Cc1ccc(OCC(=O)N[C@H]2CC[C@H](NC(=O)COc3ccc(Cl)cc3)CC2)cc1` [compound 916353], the IC50 under setting [1] came out at 14 nM.

Consider `C[C@@H]1NC(=O)N[C@@H]1CCCCCC(=O)NCCOCCOCCOCCn1cc(-c2ccc(OCC(=O)N[C@H]3CC[C@H](NC(=O)COc4ccc(Cl)cc4)CC3)cc2)nn1` [compound 916727], for which the IC50 under setting [1] was found to be 520 nM.

Consider `C[C@@H]1NC(=O)N[C@@H]1CCCCCC(=O)NCCOCCOCCOCCn1cc(-c2cc(OCC(=O)N[C@H]3CC[C@H](NC(=O)COc4ccc(Cl)cc4)CC3)ccc2Cl)nn1` [compound 916728], for which, under setting [1], the IC50 was 1270 nM.

For `O=C(COc1ccc(I)cc1)N[C@H]1CC[C@H](NC(=O)COc2ccc(C3(C(F)(F)F)NN3)cc2)CC1` [compound 916744], for the setting “Homo sapiens, HEK-293T”, the IC50 was greater than 10000 nM.

On to `C#Cc1ccc(OCC(=O)N[C@H]2CC[C@H](NC(=O)COc3ccc(C4(C(F)(F)F)N=N4)cc3)CC2)cc1` [compound 916751], for which, under setting [1], the IC50 is greater than 10000 nM.

`O=C(COc1ccc(I)cc1)N[C@H]1CC[C@H](NC(=O)COc2ccc(I)cc2)CC1` [compound 916784]: under setting [1], the IC50 worked out at 51 nM.

Regarding `C[Si](C)(C)C#Cc1ccc(OCC(=O)N[C@H]2CC[C@H](NC(=O)COc3ccc(C#C[Si](C)(C)C)cc3)CC2)cc1` [compound 916785], the IC50 under setting [1] is greater than 10000 nM.

Consider `C#Cc1ccc(OCC(=O)N[C@H]2CC[C@H](NC(=O)COc3ccc(C#C)cc3)CC2)cc1` [compound 916786], for which, under setting [1], the IC50 amounted to 158 nM.

Turning to `O=C(CCCC[C@H]1SC[C@@H]2NC(=O)N[C@@H]21)NCCCCCOC(=O)CCCCCn1cc(-c2ccc(OCC(=O)N[C@H]3CC[C@H](NC(=O)COc4ccc(Cl)cc4)CC3)cc2)nn1` [compound 916846], the IC50 under setting [1] came to 200 nM.

Turning to `O=C(CCCC[C@H]1SCC2NC(=O)NC21)NCCCCCOC(=O)CCCCCn1cc(-c2cc(OCC(=O)N[C@H]3CC[C@H](NC(=O)COc4ccc(Cl)cc4)CC3)ccc2Cl)nn1` (stereo partly shown) [compound 916847], the IC50 under setting [1] is 900 nM.

As to `C#Cc1ccc(OCC(=O)N[C@H]2CC[C@H](NC(=O)COc3ccc(Cl)c(C4(C(F)(F)F)N=N4)c3)CC2)cc1` [compound 955278], the IC50 under setting [1] is greater than 10000 nM.

As to `C#Cc1ccc(OCC(=O)N[C@H]2CC[C@H](NC(=O)COc3ccc(N=[N+]=[N-])cc3)CC2)cc1` [compound 957866], the IC50 under setting [2] was found to be 232 nM.

Take `O=C(COc1ccc(Cl)c(Cl)c1)N[C@H]1CC[C@H](NC(=O)COc2ccc(Cl)c(Cl)c2)CC1` [compound 957885]: the IC50 under setting [1] is 0.8 nM.

In the case of `Cc1cc(OCC(=O)N[C@H]2CC[C@H](NC(=O)COc3ccc(Cl)c(C)c3)CC2)ccc1Cl` [compound 957886], under setting [1], the IC50 amounted to 3 nM.

Regarding `O=C(COc1ccc(Cl)c(C(F)(F)F)c1)N[C@H]1CC[C@H](NC(=O)COc2ccc(Cl)c(C(F)(F)F)c2)CC1` [compound 957887], the IC50 under setting [1] came to 11 nM.

Regarding `O=C(COc1ccc(Cl)c(F)c1)N[C@H]1CC[C@H](NC(=O)COc2ccc(Cl)c(F)c2)CC1` [compound 957888], the IC50 under setting [1] turned out to be 0.6 nM.

As for `O=C(COc1ccc(Cl)c([N+](=O)[O-])c1)N[C@H]1CC[C@H](NC(=O)COc2ccc(Cl)c([N+](=O)[O-])c2)CC1` [compound 957889], the IC50 under setting [2] came out at 11 nM.
